Tests used:
[1] = Rat 24-h continuous intravenous infusion GLP toxicity study; format: in vivo, Sprague-Dawley rats; details: in vivo
[2] = Metabolic stability and enzyme kinetics in liver S9 (conversion to PF-00835231); details: for Km at 20 min / microsomal CLint: dog
[3] = Monkey pharmacokinetic study; details: for Vd: Vdss
[4] = monkey, PF-07304814 prodrug dosed […] intravenous, individual monkeys, […]

With `COc1cccc2[nH]c(C(=O)N[C@@H](CC(C)C)C(=O)N[C@@H](C[C@@H]3CCNC3=O)C(=O)COP(=O)(O)O)cc12` [PF-07304814] the NOAEL at 24 h ([1]; both sexes, Sprague-Dawley, 24 h continuous IV infusion, read-out: no observed adverse effect level (NOAEL)) was 1000 mg/kg, the toxicity findings [1] was “no test article related findings” and the Vmax ([2]; Dog, best-fit, Two enzyme: MM + Unsaturable) was 213.7 pmol/min/mg. It also gave a Km at 20 min ([2]; dog liver S9, pH 7.5, KM) of 2.91 µM, a Km at 20 min ([2]; dog liver S9, pH 7.5, Km, Dog, best-fit, Two enzyme: MM + Unsaturable) of 2.91 µM and a microsomal CLint ([2]; liver S9, pH 7.5, CL, unsaturable component, best-fit) of 1.69 µL/min/mg. It also gave a microsomal CLint ([2]; liver S9, pH 7.5, CLint total, Dog, (vmax / KM) + CL) of 75.2 µL/min/mg, a microsomal CLint ([2]; liver S9, pH 7.5, CLint,app) of 75.2 µL/min/mg and a microsomal CLint ([2]; liver S9, pH 7.5, CLintu (unbound CLint)) of 84 µL/min/mg. For the same molecule, the clearance ([3]; male, cynomolgus monkey, plasma, iv, Cl, monkey IV (n=2, range), PF-07304814 […], PF-00835231 1.0mg/kg) was 11.5 L/h/kg, the half-life ([3]; male, cynomolgus monkey, plasma, iv, Terminal T1/2, monkey IV (n=2, range), PF-07304814 […], PF-00835231 1.0mg/kg) was 2.6 h and the Vd ([3]; male, cynomolgus monkey, plasma, iv, monkey IV (n=2, range), PF-07304814 […], PF-00835231 1.0mg/kg) was 1.8 L/kg. It also gave a clearance ([3]; male, cynomolgus monkey, plasma, iv, […], Clearance, Mean Data, monkey, PF-07304814 prodrug dosed […] intravenous, mean) of 11.5 L/h/kg, a clearance ([3]; male, cynomolgus monkey, plasma, iv, […], Clearance, monkey, PF-07304814 prodrug dosed […] intravenous, individual monkeys) of 15.1 L/h/kg and a half-life ([3]; male, cynomolgus monkey, plasma, iv, […], Half life, Mean Data, monkey, PF-07304814 prodrug dosed […] intravenous, mean) of 2.6 h. For the same molecule, the half-life ([3]; male, cynomolgus monkey, plasma, iv, […], Half life, monkey, PF-07304814 prodrug dosed […] intravenous, individual monkeys) was 2.2 h, the Vd ([3]; male, cynomolgus monkey, plasma, iv, […], Mean Data, monkey, PF-07304814 prodrug dosed […] intravenous, mean) was 1.78 L/kg and the “%unchanged in urine” value ([3]; monkey IV, PF-07304814 […], PF-00835231 1.0mg/kg) was less than 0.1%. The “Total Concn, Mean Data” value ([3]; monkey plasma, PF-07304814 prodrug dosed […] intravenous, time 7 h, mean, BLQ=0.1ng/mL) was “BLQ”, the “Urine Concn” value ([3]; monkey urine 0-7h, PF-07304814 prodrug dosed […] intravenous, individual monkeys, BLQ=1ng/mL for urine) was “BLQ” and the Half life [3, 4] was 3.0 h. For the same molecule, the clearance [3, 4] was 7.74 L/h/kg.

— PMC8523698, “Preclinical characterization of an intravenous coronavirus 3CL protease inhibitor for the potential treatment of COVID19” (Nature Communications, 2021)
